Results on 60 compounds are retold here after US11292787B2, “Five-membered-fused-six-membered aza-aromatic ring compound, preparation method thereof, pharmaceutical composition and application thereof” (XIAMEN UNIVERSITY, priority 2017, dated 2022).

For the test, the target named is T1, K-Ras protein (Homo sapiens, UniProt P01116, G12V).
T1 construct: in SW620 cells, compound I-a-1 can effectively enhance the degradation of endogenous K-RAS-G12V proteins; endogenous in cells; host or cells: SW-620
T1 sequence (P01116 1-188 isoform P01116-2 G12V): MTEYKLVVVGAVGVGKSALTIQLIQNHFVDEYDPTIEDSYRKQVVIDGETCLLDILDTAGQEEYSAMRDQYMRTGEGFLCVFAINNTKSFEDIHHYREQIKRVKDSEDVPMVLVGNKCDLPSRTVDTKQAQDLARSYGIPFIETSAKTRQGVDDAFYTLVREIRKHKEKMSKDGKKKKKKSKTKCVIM
As to the kind of experiment: K-Ras protein degradation rate by Western blot in SW-620 cells. Conditions: 10 μM, SW-620 cells, 24 h, Western blot, relative to DMSO control; read-out: Degradation rate of compounds at 10 μM on Ras protein (%). Format: cell-based. The protocol:
Inhibitory activity of compounds on K-RAS was evaluated by the degradation rate of protein level of administration group relative to control group (Cell Rep 2014, 7, 871-882).
The specific method was as follows:
1. Cell plating: SW-620 cells in logarithmic growth phase were inoculated into a 24-well plate at 2×10^4/well, and cultured in a 37° C., 5% CO2 incubator.
2. Administering drug to cells: after 24 h of culture, various drug stocks […]; the original solution in the 24-well plate was discarded, to which was added the obtained drug solution, with the DMSO group as the blank control; after the drug solution was added, the 24-well plate was transferred to the 37° C. CO2 incubator to continue the culture.
3. Detection of K-Ras protein level: after 24 h of administration and culture, the liquid in the well was discarded, the cells were routinely collected, and rinsed twice with 1×PBS, a cell lysate was added to extract the total cellular protein, and the protein concentration was determined by BCA method. 30 μg of the protein sample was taken for SDS-polyacrylamide gel electrophoretic transmembrane, the membrane was blocked sequentially, incubated with K-Ras antibody (1:1000) and internal reference antibody β-actin (1:2000) respectively overnight at 4° C., rinsed with TBST for 5 min×3 times, then incubated with the addition of the corresponding horseradish peroxidase-labeled secondary antibody (1:5000) for 1-2 h, and rinsed with TBST for 5 min×3 times. Finally, chemiluminescence image was acquired using Image Lab software.
4. Calculation of single-point K-Ras protein degradation rate: quantitative and calibration analysis of K-Ras and β-actin were conducted using Image-Lab software, and then the intracellular K-Ras degradation rate was calculated according to the following formula: single-point K-Ras protein degradation rate (%)=(control group−administration group)/control group×100%. The drug with degradation rate ≥20% was selected for soft agar experiment.
(Immunoblotting shows a protein as a band on a membrane.)
On to `O=C(NC1CCCCC1)c1ccc(-c2cnc3cccnn23)s1` [VIII-f-3], for which the percent K-Ras protein degradation (single point) at 10 µM was 15%. For the compound `O=C(Nc1ccc(OC(F)(F)F)cc1)c1c[nH]c(-c2n[nH]c3ncccc23)c1` [III-f-18], the percent K-Ras protein degradation (single point) at 10 µM stood at 15%. Regarding `O=C(NC1CCCCC1)c1c[nH]c(-c2cnc3cnccn23)c1` [VII-b-3], the percent K-Ras protein degradation (single point) at 10 µM came to 10%.

With `O=C(NCc1cc(C(F)(F)F)ccc1F)c1csc(-c2cnc3cnccn23)c1` [VII-a-3], the percent K-Ras protein degradation (single point) at 10 µM was determined as 30%. Then `Nc1cccc(CNC(=O)c2c[nH]c(-c3n[nH]c4ncccc34)c2)c1` [III-f-49], with 50%; and `O=S(=O)(NCc1c(F)cccc1Cl)c1c[nH]c(-c2n[nH]c3ncccc23)c1` [III-g-4], with 12%. The result for `COc1ccccc1CNC(=O)c1c[nH]c(-c2n[nH]c3ncccc23)c1` [III-f-54] reads 50%; that for `O=C(Nc1ccccc1)c1ccc(-c2c[nH]c3ccccc23)cc1` [IV-e-2], 20%; that for `O=C(NC1CCCCC1)c1c[nH]c(-c2n[nH]c3ncccc23)c1` [III-f-27], 14%.

`O=C(NCc1cc(C(F)(F)F)ccc1F)c1csc(-c2cnc3cccnn23)c1` [VIII-a-3]: the percent K-Ras protein degradation (single point) at 10 µM was found to be 50%.

As for `O=C(NCc1c(F)cccc1Cl)c1ccc(-c2nnc3ccccn23)s1` [X-f-1], the percent K-Ras protein degradation (single point) at 10 µM turned out to be 20%. The result for `O=C(NCc1cc(C(F)(F)F)ccc1F)c1csc(-c2n[nH]c3ncccc23)c1` [III-a-4] reads 60%; that for `O=C(Nc1cccc(C(F)(F)F)c1)c1c[nH]c(-c2n[nH]c3ncccc23)c1` [III-f-11], 13%; that for `O=C(NCc1c(F)cccc1Cl)c1csc(-c2c[nH]c3ccccc23)c1` [IV-a-1], 10%. With `O=C(NCc1ccccn1)c1c[nH]c(-c2n[nH]c3ncccc23)c1` [III-f-37], the percent K-Ras protein degradation (single point) at 10 µM came to 35%. Then `O=S(=O)(Cc1ccccc1)c1c[nH]c(-c2n[nH]c3ncccc23)c1` [III-h-1], with 14%; and `O=C(Nc1cccc(F)c1)c1c[nH]c(-c2n[nH]c3ncccc23)c1` [III-f-13], with 16%. The result for `Cc1cccc(CNC(=O)c2c[nH]c(-c3n[nH]c4ncccc34)c2)c1` [III-f-50] reads 40%.

On to `O=C(NC1CCCCC1)c1c[nH]c(-c2cnc3cccnn23)c1` [VIII-b-3], for which the percent K-Ras protein degradation (single point) at 10 µM amounted to 2%. For the compound `O=C(NCc1c(F)cccc1Cl)c1ccc(-c2c[nH]c3ccccc23)s1` [IV-f-1], the percent K-Ras protein degradation (single point) at 10 µM worked out at 10%. The result for `CC(C)Oc1ccc(NC(=O)c2c[nH]c(-c3n[nH]c4ncccc34)c2)cc1` [III-f-15] reads 14%; that for `O=C(NCc1cccc(OC(F)(F)F)c1)c1c[nH]c(-c2n[nH]c3ncccc23)c1` [III-f-38], 50%. On to `O=C(NCc1c(F)cccc1F)c1c[nH]c(-c2n[nH]c3ncccc23)c1` [III-f-3], for which the percent K-Ras protein degradation (single point) at 10 µM was found to be 6%. Then `O=C(NCc1ccccc1O)c1c[nH]c(-c2n[nH]c3ncccc23)c1` [III-f-35], with 50%; and `O=C(NCc1c(F)cccc1Cl)c1coc(-c2n[nH]c3ncccc23)c1` [III-b-1], with 35%; and `N#Cc1ccc(CNC(=O)c2c[nH]c(-c3n[nH]c4ncccc34)c2)cc1` [III-f-31], with 45%. For the compound `O=C(NCc1ccc(Br)cc1)c1c[nH]c(-c2n[nH]c3ncccc23)c1` [III-f-43], the percent K-Ras protein degradation (single point) at 10 µM came out at 40%.

For the compound `O=C(NCc1ccc(Cl)c(Cl)c1)c1c[nH]c(-c2n[nH]c3ncccc23)c1` [III-f-4], the percent K-Ras protein degradation (single point) at 10 µM came out at 19%. The result for `O=C(Nc1ccccc1)c1ccc(-c2cnc3cnccn23)cc1` [VII-e-2] reads 20%; that for `O=C(NCc1c(F)cccc1Cl)c1coc(-c2cnc3cccnn23)c1` [VIII-c-1], 12%.

As for `N#Cc1cccc(CNC(=O)c2c[nH]c(-c3n[nH]c4ncccc34)c2)c1` [III-f-32], the percent K-Ras protein degradation (single point) at 10 µM was 60%.

As for `O=C(NC1CCCCC1)c1ccc(-c2cnc3cccnn23)cc1` [VIII-e-3], the percent K-Ras protein degradation (single point) at 10 µM was determined as 20%. Turning to `O=C(Nc1ccccc1)c1coc(-c2c[nH]c3ccccc23)c1` [IV-c-2], the percent K-Ras protein degradation (single point) at 10 µM is 50%. Consider `O=C(NCc1c(F)cccc1Cl)c1cccc(-c2n[nH]c3ccccc23)c1` [I-d-1], for which the percent K-Ras protein degradation (single point) at 10 µM is 2%. Then `O=C(Nc1ccccc1)c1ccc(-c2n[nH]c3ccccc23)s1` [I-f-2], with 25%; and `O=C(NCc1c(F)cccc1Cl)c1ccc(-c2n[nH]c3ccccc23)s1` [I-f-1], with 20%.

Consider `O=C(NCc1cccc(C(F)(F)F)c1)c1csc(-c2n[nH]c3ccccc23)c1` [I-a-8], for which the percent K-Ras protein degradation (single point) at 10 µM is 20%. The result for `O=C(NCc1cccc(C(F)(F)F)c1)c1csc(-c2cnc3cnccn23)c1` [VII-a-2] reads 60%. Then `O=C(NCc1ccccc1F)c1c[nH]c(-c2n[nH]c3ncccc23)c1` [III-f-45], with 50%; and `O=C(NCc1ccccc1Cl)c1c[nH]c(-c2n[nH]c3ncccc23)c1` [III-f-47], with 50%. Then `O=C(NCc1cc(C(F)(F)F)ccc1F)c1c[nH]c(-c2n[nH]c3ncccc23)c1` [III-f-62], with 70%; and `O=C(Nc1ccccc1)c1ccc(-c2cnc3cnccn23)s1` [VII-f-2], with 30%; and `O=C(NCc1c(F)cccc1Cl)c1c[nH]c(-c2cnc3cccnn23)c1` [VIII-b-1], with 20%. Consider `O=C(NCc1ccc(OC(F)(F)F)cc1)c1c[nH]c(-c2n[nH]c3ncccc23)c1` [III-f-40], for which the percent K-Ras protein degradation (single point) at 10 µM was determined as 30%.

On to `O=C(NCc1c(F)cccc1Cl)c1coc(-c2nnc3ccccn23)c1` [X-c-1], for which the percent K-Ras protein degradation (single point) at 10 µM was determined as 10%. The result for `O=C(Nc1ccccc1)c1csc(-c2n[nH]c3ccccc23)c1` [I-a-11] reads 30%. Then `Cc1ccccc1CNC(=O)c1c[nH]c(-c2n[nH]c3ncccc23)c1` [III-f-51], with 70%.

As for `O=C(Nc1c(F)cccc1Cl)c1cccc(-c2n[nH]c3ncccc23)c1` [III-c-3], the percent K-Ras protein degradation (single point) at 10 µM was 16%. Take `Cc1ccc(CNC(=O)c2c[nH]c(-c3n[nH]c4ncccc34)c2)cc1` [III-f-52]: the percent K-Ras protein degradation (single point) at 10 µM was 35%. Then `O=C(NCc1cc(C(F)(F)F)cc(C(F)(F)F)c1)c1c[nH]c(-c2n[nH]c3ncccc23)c1` [III-f-59], with 60%; and `O=C(NCc1ccc(C(F)(F)F)cc1)c1c[nH]c(-c2n[nH]c3ncccc23)c1` [III-f-34], with 60%; and `O=C(NCc1ccc(F)c(C(F)(F)F)c1)c1c[nH]c(-c2n[nH]c3ncccc23)c1` [III-f-57], with 70%. The result for `O=C(NCc1ccc(Cl)c(C(F)(F)F)c1)c1c[nH]c(-c2n[nH]c3ncccc23)c1` [III-f-61] reads 50%. Then `O=C(NCc1cccc(C(F)(F)F)c1)c1csc(-c2cnc3cccnn23)c1` [VIII-a-2], with 60%. In the case of `O=C(NCc1c(F)cccc1Cl)c1ccc(-c2nnc3ccccn23)cc1` [X-e-1], the percent K-Ras protein degradation (single point) at 10 µM came to 10%.

With `O=C(NCc1cc(F)cc(C(F)(F)F)c1)c1c[nH]c(-c2n[nH]c3ncccc23)c1` [III-f-58], the percent K-Ras protein degradation (single point) at 10 µM came to 75%. The result for `O=C(NCc1ccccc1OC(F)(F)F)c1c[nH]c(-c2n[nH]c3ncccc23)c1` [III-f-39] reads 60%. Then `O=C(NCc1c(F)cccc1Cl)c1ccc(-c2cnc3cnccn23)cc1` [VII-e-1], with 30%; and `O=C(Nc1ccccc1)c1c[nH]c(-c2cnc3cccnn23)c1` [VIII-b-2], with 10%; and `O=C(NCc1c(F)cccc1Cl)c1ccc(-c2c[nH]c3ccccc23)cc1` [IV-e-1], with 30%.
